What was measured:
[1] = Selectivity index, ratio of CC50 for human MT4 cells to EC50 for HIV1 3B infected in human MT4 cells; assay type: toxicity, cell-based; details: HIV1 3B infected MT4 cells, read-out: Ratio CC50/EC50
[2] = biological target: Human immunodeficiency virus type 1 reverse transcriptase (Human immunodeficiency virus 1, UniProt Q72547, G190A); assay: Inhibition of HIV-1 reverse transcriptase G190A mutant assessed as reduction in dTTP incorporation using poly(rA)/oligo(dT)16 as template/primer after 40 mins by PicoGreen dye based spectrofluorometric analysis
[3] = Cytotoxicity against human MT4 cells assessed as reduction in cell viability after 5 days by MTT assay; assay type: cell-based
[4] = biological target: Human immunodeficiency virus type 1 reverse transcriptase (Human immunodeficiency virus 1, UniProt Q72547); assay: Inhibition of recombinant wild-type HIV-1 reverse transcriptase p66/p51 RNA-dependent DNA polymerase activity expressed in Escherichia coli JM109 assessed as reduction in dTTP incorporation using poly(rA)/oligo(dT)16 as template/primer after 40 mins by PicoGreen dye based spectrofluorometric analysis
[5] = biological target: Human immunodeficiency virus type 1 reverse transcriptase (Human immunodeficiency virus 1, UniProt Q72547, V106A); assay: Inhibition of HIV-1 reverse transcriptase V106A mutant assessed as reduction in dTTP incorporation using poly(rA)/oligo(dT)16 as template/primer after 40 mins by PicoGreen dye based spectrofluorometric analysis
[6] = biological target: Human immunodeficiency virus type 1 reverse transcriptase (Human immunodeficiency virus 1, UniProt Q72547, L100I); assay: Inhibition of HIV-1 reverse transcriptase L100I mutant assessed as reduction in dTTP incorporation using poly(rA)/oligo(dT)16 as template/primer after 40 mins by PicoGreen dye based spectrofluorometric analysis
[7] = biological target: Human immunodeficiency virus type 1 reverse transcriptase (Human immunodeficiency virus 1, UniProt Q72547, E138K); assay: Inhibition of HIV-1 reverse transcriptase E138K mutant assessed as reduction in dTTP incorporation using poly(rA)/oligo(dT)16 as template/primer after 40 mins by PicoGreen dye based spectrofluorometric analysis
[8] = biological target: Human immunodeficiency virus type 1 reverse transcriptase (Human immunodeficiency virus 1, UniProt Q72547, K103N); assay: Inhibition of HIV-1 reverse transcriptase K103N mutant assessed as reduction in dTTP incorporation using poly(rA)/oligo(dT)16 as template/primer after 40 mins by PicoGreen dye based spectrofluorometric analysis
[9] = biological target: Human immunodeficiency virus type 1 reverse transcriptase (Human immunodeficiency virus 1, UniProt Q72547, Y188L); assay: Inhibition of HIV-1 reverse transcriptase Y188L mutant assessed as reduction in dTTP incorporation using poly(rA)/oligo(dT)16 as template/primer after 40 mins by PicoGreen dye based spectrofluorometric analysis
[10] = biological target: Human immunodeficiency virus type 1 reverse transcriptase (Human immunodeficiency virus 1, UniProt Q72547, Y181C); assay: Inhibition of HIV-1 reverse transcriptase Y181C mutant assessed as reduction in dTTP incorporation using poly(rA)/oligo(dT)16 as template/primer after 40 mins by PicoGreen dye based spectrofluorometric analysis
[11] = tested on: Human immunodeficiency virus 1; assay: Antiviral activity against HIV1 3B infected in human MT4 cells assessed as inhibition of virus-induced cytopathic effect after 5 days by MTT assay; assay type: functional, cell-based; details: Human immunodeficiency virus 1, 3B, MT4, 120 h

## Cc1ccc(CS(=O)(=O)n2c(=O)[nH]c3ccc(Cl)cc32)cc1
[1]
  selectivity ratio: 48
[2]
  IC50: ≥ 310 µM
[3]
  CC50 at 120 h: 93 µM
[4]
  IC50: 2.25 µM
[5]
  IC50: 6.6 µM
[6]
  IC50: 55 µM
[7]
  IC50: 63 µM
[8]
  IC50: 280 µM
[9]
  IC50: 280 µM
[10]
  IC50: 183 µM
[11]
  EC50: 1.93 µM

## O=c1[nH]c2ccc(Cl)cc2n1S(=O)(=O)Cc1ccccc1
[1]
  selectivity ratio: 187
[2]
  IC50: 250 µM
[3]
  CC50 at 120 h: 155 µM
[4]
  IC50: 17 µM
[5]
  IC50: 9.38 µM
[6]
  IC50: 90 µM
[7]
  IC50: 98 µM
[8]
  IC50: > 371 µM
[9]
  IC50: > 371 µM
[10]
  IC50: ≥ 273 µM
[11]
  EC50: 0.83 µM

## O=c1[nH]c2ccc(Cl)cc2n1S(=O)(=O)Cc1ccc(Cl)cc1
[1]
  selectivity ratio: 15
[2]
  IC50: > 335 µM
[3]
  CC50 at 120 h: 77 µM
[4]
  IC50: 18 µM
[5]
  IC50: 15 µM
[6]
  IC50: 92 µM
[7]
  IC50: ≥ 285 µM
[8]
  IC50: > 335 µM
[9]
  IC50: > 335 µM
[10]
  IC50: > 335 µM
[11]
  EC50: 5.06 µM

## O=c1[nH]c2ccc(Cl)cc2n1S(=O)(=O)CCc1ccc(Cl)cc1
[1]
  selectivity ratio: < 1
[2]
  IC50: 69 µM
[3]
  CC50 at 120 h: 91 µM
[4]
  IC50: 95 µM
[5]
  IC50: 69 µM
[6]
  IC50: 180 µM
[7]
  IC50: 108 µM
[8]
  IC50: 231 µM
[9]
  IC50: 227 µM
[10]
  IC50: 107 µM
[11]
  EC50: > 91 µM

## O=c1[nH]c2ccc(Cl)cc2n1S(=O)(=O)CCc1ccccc1Cl
[1]
  selectivity ratio: < 1
[2]
  IC50: 280 µM
[3]
  CC50 at 120 h: 100 µM
[4]
  IC50: 116 µM
[5]
  IC50: 137 µM
[6]
  IC50: 214 µM
[7]
  IC50: ≥ 323 µM
[8]
  IC50: > 323 µM
[9]
  IC50: > 323 µM
[10]
  IC50: 176 µM
[11]
  EC50: > 100 µM

## O=C1Nc2ccc(Cl)cc2[C@@](C#CC2CC2)(C(F)(F)F)O1 [EFAVIRENZ]
[3]
  CC50 at 120 h: > 6.33 µM

## Cc1ccccc1CS(=O)(=O)n1c(=O)[nH]c2ccc(Cl)cc21
[1]
  selectivity ratio: 24
[2]
  IC50: > 356 µM
[3]
  CC50 at 120 h: 238 µM
[4]
  IC50: 21 µM
[5]
  IC50: > 356 µM
[6]
  IC50: ≥ 64 µM
[7]
  IC50: > 356 µM
[8]
  IC50: > 356 µM
[9]
  IC50: > 356 µM
[10]
  IC50: > 356 µM
[11]
  EC50: 10 µM

## O=c1[nH]c2ccc(Cl)cc2n1S(=O)(=O)Cc1ccccc1Cl
[1]
  selectivity ratio: 271
[2]
  IC50: 238 µM
[3]
  CC50 at 120 h: 52 µM
[4]
  IC50: 1.3 µM
[5]
  IC50: 1.8 µM
[6]
  IC50: 7.13 µM
[7]
  IC50: 12 µM
[8]
  IC50: > 335 µM
[9]
  IC50: > 335 µM
[10]
  IC50: > 335 µM
[11]
  EC50: 0.19 µM

## O=c1[nH]c2ccc(Cl)cc2n1S(=O)(=O)CCc1ccccc1
[1]
  selectivity ratio: < 1
[2]
  IC50: > 356 µM
[3]
  CC50 at 120 h: 30 µM
[4]
  IC50: 76 µM
[5]
  IC50: > 356 µM
[6]
  IC50: > 356 µM
[7]
  IC50: > 356 µM
[8]
  IC50: > 356 µM
[9]
  IC50: > 356 µM
[10]
  IC50: > 356 µM
[11]
  EC50: > 30 µM

## Cc1cccc(CS(=O)(=O)n2c(=O)[nH]c3ccc(Cl)cc32)c1
[1]
  selectivity ratio: 1380
[2]
  IC50: 132 µM
[3]
  CC50 at 120 h: 110 µM
[4]
  IC50: 0.79 µM
[5]
  IC50: 0.9 µM
[6]
  IC50: 3 µM
[7]
  IC50: 7.6 µM
[8]
  IC50: 105 µM
[9]
  IC50: > 356 µM
[10]
  IC50: 98 µM
[11]
  EC50: 0.08 µM

## O=c1[nH]c2ccc(Cl)cc2n1S(=O)(=O)CCc1cccc(Cl)c1
[1]
  selectivity ratio: < 1
[2]
  IC50: 258 µM
[3]
  CC50 at 120 h: 63 µM
[4]
  IC50: 131 µM
[5]
  IC50: 45 µM
[6]
  IC50: ≥ 285 µM
[7]
  IC50: > 323 µM
[8]
  IC50: > 323 µM
[9]
  IC50: > 323 µM
[10]
  IC50: 74 µM
[11]
  EC50: > 64 µM

## O=c1[nH]c2ccc(Cl)cc2n1S(=O)(=O)Cc1cccc(Cl)c1
[1]
  selectivity ratio: 134
[2]
  IC50: 260 µM
[3]
  CC50 at 120 h: 152 µM
[4]
  IC50: 6 µM
[5]
  IC50: 6.6 µM
[6]
  IC50: 29 µM
[7]
  IC50: 64 µM
[8]
  IC50: > 335 µM
[9]
  IC50: > 335 µM
[10]
  IC50: > 335 µM
[11]
  EC50: 1.14 µM

## Cc1cccc(CCS(=O)(=O)n2c(=O)[nH]c3ccc(Cl)cc32)c1
[1]
  selectivity ratio: < 1
[2]
  IC50: 90 µM
[3]
  CC50 at 120 h: 31 µM
[4]
  IC50: 39 µM
[5]
  IC50: 74 µM
[6]
  IC50: 65 µM
[7]
  IC50: 88 µM
[8]
  IC50: 119 µM
[9]
  IC50: 219 µM
[10]
  IC50: 80 µM
[11]
  EC50: > 31 µM

## Cc1ccccc1CCS(=O)(=O)n1c(=O)[nH]c2ccc(Cl)cc21
[1]
  selectivity ratio: < 1
[2]
  IC50: 54 µM
[3]
  CC50 at 120 h: 32 µM
[4]
  IC50: 29 µM
[5]
  IC50: 44 µM
[6]
  IC50: 59 µM
[7]
  IC50: 49 µM
[8]
  IC50: 89 µM
[9]
  IC50: 165 µM
[10]
  IC50: 32 µM
[11]
  EC50: > 32 µM

## Cc1ccnc2c1NC(=O)c1cccnc1N2C1CC1 [NEVIRAPINE]
[3]
  CC50 at 120 h: > 15 µM
[11]
  EC50: 0.18 µM

## Cc1ccc(CCS(=O)(=O)n2c(=O)[nH]c3ccc(Cl)cc32)cc1
[1]
  selectivity ratio: < 1
[2]
  IC50: 89 µM
[3]
  CC50 at 120 h: 161 µM
[4]
  IC50: 218 µM
[5]
  IC50: 95 µM
[6]
  IC50: 311 µM
[7]
  IC50: 160 µM
[8]
  IC50: > 342 µM
[9]
  IC50: 249 µM
[10]
  IC50: 179 µM
[11]
  EC50: > 160 µM

Source: ChEMBL document CHEMBL4052651, “Searching for novel N1-substituted benzimidazol-2-ones as non-nucleoside HIV-1 RT inhibitors” (Bioorg Med Chem, 2017)
